Measured values published in patent US6890942B2, “Acyl sulfonamides as inhibitors of HIV integrase” (Bristol-Myers Squibb Company, priority 2003, dated 2005).

target: T1, HIV-integrase (Human immunodeficiency virus type 1 group M subtype B, UniProt P04585); experiment: HIV-Integrase Inhibition Activity (SPA bead strand-transfer assay); type: biochemical; settings: 10 μM compound; recombinant integrase
T1 construct: 0.26 ng of recombinant integrase was incubated with the beads
Description: For each reaction, 5 pmole of biotin labeled substrate DNA was bound to 100 ug of Streptavidin coated PVT SPA beads (Amersham Pharmacia Biotech). 0.26 ng of recombinant integrase was incubated with the beads for 90 min at 37 C. Unbound enzyme was removed by washing the complex followed by addition of inhibitors and 0.1 fmol of P33 labeled target DNA. Reaction was stopped by adding EDTA to a final concentration of 10 mM. Samples were counted in TopCountNXT (Packard) and the CPM was used as a measure of integration. Reaction condition was as described in A. Engelman and R. Craigie, J. Virol. 69, 5908-5911 (1995). The sequences of substrate and target DNA were described in Nucleic Acid Research 22, 1121-1122 (1994). Compounds of this invention tested in this assay have IC50's of approximately 0.01 to 25 μM.

Structure (SMILES)	inhibition at 10 µM [%]
CON(Cc1ccc(F)cc1)C(=O)/C=C(\O)C(=O)NS(=O)(=O)c1ccc(C)cc1 [Example 1, 3-Hydroxy-4-oxo-4-(toluene-4-sulfonylamino)-but-2-enoic acid (4-fluoro-benzyl)-methoxy-amide]	99
CON(Cc1ccc(F)cc1)C(=O)/C=C(\O)C(=O)NS(C)(=O)=O [Example 2, 3-Hydroxy-4-methanesulfonylamino-4-oxo-but-2-enoic acid (4-fluoro-benzyl)-methoxy-amide]	99
CON(Cc1ccc(F)cc1)C(=O)/C=C(\O)C(=O)NS(=O)(=O)c1nnc(NC(C)=O)s1 [Example 3, 4-(5-Acetylamino-[1,3,4]thiadiazole-2-sulfonylamino)-3-hydroxy-4-oxo-but-2-enoic acid (4-fluoro-benzyl)-methoxy-amide]	99
CON(Cc1ccc(F)cc1)C(=O)/C=C(\O)C(=O)NS(=O)(=O)CC1CCC1 [Example 4, 4-Cyclobutylmethanesulfonylamino-3-hydroxy4-oxo-but-2-enoic acid (4-fluoro-benzyl)-methoxy-amide]	99
CON(Cc1ccc(F)cc1)C(=O)/C=C(\O)C(=O)NS(=O)(=O)C1CCCCC1 [Example 5, 4-Cyclohexanesulfonylamino-3-hydroxy-4-oxo-but-2-enoic acid (4-fluoro-benzyl)-methoxy-amide]	99
CON(Cc1ccc(F)cc1)C(=O)/C=C(\O)C(=O)NS(=O)(=O)C1CCCC1 [Example 6, 4-Cyclopentanesulfonylamino-3-hydroxy-4-oxo-but-2-enoic acid (4-fluoro-benzyl)-methoxy-amide]	99
CON(Cc1ccc(F)cc1)C(=O)/C=C(\O)C(=O)NS(=O)(=O)C1CC1 [Example 7, 4-Cyclopropanesulfonylamino-3-hydroxy-4-oxo-but-2-enoic acid (4-fluoro-benzyl)-methoxy-amide]	99
CON(Cc1ccc(F)cc1)C(=O)/C=C(\O)C(=O)NS(=O)(=O)c1c(C)noc1C [Example 8, 4-(3,5-Dimethyl-isoxazole-4-sulfonylamino)-3-hydroxy-4-oxo-but-2-enoic acid (4-fluoro-benzyl)-methoxy-amide]	99
CON(Cc1ccc(F)cc1)C(=O)/C=C(\O)C(=O)NS(=O)(=O)c1cccc(C)n1 [Example 9, 3-Hydroxy-4-(6-methyl-pyridine-2-sulfonylamino)-4-oxo-but-2-enoic acid (4-fluoro-benzyl)-methoxy-amide]	94
CON(Cc1ccc(F)cc1)C(=O)/C=C(\O)C(=O)NS(=O)(=O)c1ccc(Cl)s1 [Example 10, 4-(5-Chloro-thiophene-2-sulfonylamino)-3-hydroxy-4-oxo-but-2-enoic acid (4-fluoro-benzyl)-methoxy-amide]	95
CON(Cc1ccc(F)cc1)C(=O)/C=C(\O)C(=O)NS(=O)(=O)c1ccc(NC(C)=O)cc1 [Example 11, 4-(4-Acetylamino-benzenesulfonylamino)-3-hydroxy-4-oxo-but-2-enoic acid (4-fluoro-benzyl)-methoxy-amide]	99
CCOc1ccc2nc(S(=O)(=O)NC(=O)C(O)=CC(=O)N(Cc3ccc(F)cc3)OC)sc2c1 [Example 12, 4-(6-Ethoxy-benzothiazole-2-sulfonylamino)-3-hydroxy-4-oxo-but-2-enoic acid (4-fluoro-benzyl)-methoxy-amide]	99
CON(Cc1ccc(F)cc1)C(=O)/C=C(\O)C(=O)NS(=O)(=O)c1sc(C)nc1C [Example 13, 4-(2,4-Dimethyl-thiazole-5-sulfonylamino)-3-hydroxy-4-oxo-but-2-enoic acid (4-fluoro-benzyl)-methoxy-amide]	98
CON(Cc1ccc(F)cc1)C(=O)/C=C(\O)C(=O)NS(=O)(=O)c1cn(C)cn1 [Example 14, 3-Hydroxy-4-(1-methyl-1H-imidazole-4-sulfonylamino)-4-oxo-but-2-enoic acid (4-fluoro-benzyl)-methoxy-amide]	93
CCN1CCCC1CNC(=O)c1cc(S(=O)(=O)NC(=O)/C(O)=C/C(=O)N(Cc2ccc(F)cc2)OC)ccc1OC (stereo not shown) [Example 15, N-(1-Ethyl-pyrrolidin-2-ylmethyl)-5-[3-[(4-fluoro-benzyl)-methoxy-carbamoyl]-2-hydroxy-acryloylsulfamoyl]-2-methoxy-benzamide]	93
CON(Cc1ccc(F)cc1)C(=O)/C=C(\O)C(=O)NS(=O)(=O)C1CCS(=O)(=O)C1 (stereo not shown) [Example 16, 4-(1,1-Dioxo-tetrahydro-1×6-thiophene-3-sulfonylamino)-3-hydroxy-4-oxo-but-2-enoic acid (4-fluoro-benzyl)-methoxy-amide]	98
CON(Cc1ccc(F)cc1)C(=O)/C=C(\O)C(=O)NS(=O)(=O)c1ccc(-c2cc(C(F)(F)F)n(C)n2)s1 [Example 17, 3-Hydroxy-4-[5-(1-methyl-5-trifluoromethyl-1H-pyrazol-3-yl)-thiophene-2-sulfonylamino]-4-oxo-but-2-enoic acid (4-fluoro-benzyl)-methoxy-amide]	99
CCCC1(S(=O)(=O)NC(=O)/C(O)=C/C(=O)N(Cc2ccc(F)cc2)OC)CC1 [Example 18, 3-Hydroxy-4-oxo-4-(1-propyl-cyclopropanesulfonylamino)-but-2-enoic acid (4-fluoro-benzyl)-methoxy-amide]	99
CON(Cc1ccc(F)cc1)C(=O)/C=C(\O)C(=O)NS(=O)(=O)C1(CC2CC2)CC1 [Example 19, 4-(1-Cyclopropylmethyl-cyclopropanesulfonylamino)-3-hydroxy-4-oxo-but-2-enoic acid (4-fluoro-benzyl)-methoxy-amide]	99
CON(Cc1ccc(F)cc1)C(=O)/C=C(\O)C(=O)NS(=O)(=O)C1(Cc2ccccc2)CC1 [Example 20, 4-(1-Benzyl-cyclopropanesulfonylamino)-3-hydroxy-4-oxo-but-2-enoic acid (4-fluoro-benzyl)-methoxy-amide]	99
CON(Cc1ccc(C(=O)O)cc1)C(=O)/C=C(\O)C(=O)NS(C)(=O)=O [Example 21, 4-{[(3-Hydroxy-4-methanesulfonylamino-4-oxo-but-2-enoyl)-methoxy-amino]-methyl}-benzoic acid]	30
CON(Cc1ccc(F)c(C)c1)C(=O)/C=C(\O)C(=O)NS(C)(=O)=O [Example 22, 3-Hydroxy-4-methanesulfonylamino-4-oxo-but-2-enoic acid (4-fluoro-3-methyl-benzyl)-methoxy-amide]	99
CON(Cc1ccccc1OC(C)C)C(=O)/C=C(\O)C(=O)NS(C)(=O)=O [Example 23, 3-Hydroxy-4-methanesulfonylamino-4-oxo-but-2-enoic acid (2-isopropoxy-benzyl)-methoxy-amide]	99
CON(Cc1ccc(C(=O)OC(C)(C)C)cc1)C(=O)/C=C(\O)C(=O)NS(C)(=O)=O [Example 24, 4-{[(3-Hydroxy-4-methanesulfonylamino-4-oxo-but-2-enoyl)-methoxy-amino]-methyl}-benzoic acid tert-butyl ester]	15
CON(Cc1ccc(C)c(F)c1)C(=O)/C=C(\O)C(=O)NS(C)(=O)=O [Example 25, 3-Hydroxy-4-methanesulfonylamino-4-oxo-but-2-enoic acid (3-fluoro-4-methyl-benzyl)-methoxy-amide]	99
CON(C(=O)/C=C(\O)C(=O)NS(C)(=O)=O)C(C)c1ccc(F)cc1 (stereo not shown) [Example 26, 3-Hydroxy-4-methanesulfonylamino-4-oxo-but-2-enoic acid[1-(4-fluoro-phenyl)-ethyl]-methoxy-amide]	99
CON(C(=O)/C=C(\O)C(=O)NS(C)(=O)=O)C(c1ccc(F)cc1)c1ccc(F)cc1 [Example 27, 3-Hydroxy-4-methanesulfonylamino-4-oxo-but-2-enoic acid [bis-(4-fluoro-phenyl)-methyl]-methoxy-amide]	60
CON(Cc1ccc(F)cc1Cl)C(=O)/C=C(\O)C(=O)NS(C)(=O)=O [Example 28, 3-Hydroxy-4-methanesulfonylamino-4-oxo-but-2-enoic acid (2-chloro-4-fluoro-benzyl)-methoxy-amide]	99
CN(C(=O)/C=C(\O)C(=O)NS(C)(=O)=O)C(Cc1ccc(Cl)cc1)Cc1ccc(Cl)cc1 [Example 29, 3-Hydroxy-4-methanesulfonylamino-4-oxo-but-2-enoic acid [1-(4-chloro-benzyl)-2-(4-chloro-phenyl)-ethyl]-methyl-amide]	86
CON(CCCc1ccc(F)cc1)C(=O)/C=C(\O)C(=O)NS(C)(=O)=O [Example 30, 3-Hydroxy-4-methanesulfonylamino-4-oxo-but-2-enoic acid [3-(4-fluoro-phenyl)-propyl]-methoxy-amide]	98

test system: not given; experiment: not given; settings: not given

Structure (SMILES)	melting point
CON(Cc1ccc(F)cc1)C(=O)/C=C(\O)C(=O)NS(C)(=O)=O [Example 2, 3-Hydroxy-4-methanesulfonylamino-4-oxo-but-2-enoic acid (4-fluoro-benzyl)-methoxy-amide]	137 °C (dec.)
CON(Cc1ccc(C(=O)O)cc1)C(=O)/C=C(\O)C(=O)NS(C)(=O)=O [Example 21, 4-{[(3-Hydroxy-4-methanesulfonylamino-4-oxo-but-2-enoyl)-methoxy-amino]-methyl}-benzoic acid]	119 to 124 °C
CON(Cc1ccc(F)c(C)c1)C(=O)/C=C(\O)C(=O)NS(C)(=O)=O [Example 22, 3-Hydroxy-4-methanesulfonylamino-4-oxo-but-2-enoic acid (4-fluoro-3-methyl-benzyl)-methoxy-amide]	138 °C (dec.)
CON(Cc1ccc(F)cc1Cl)C(=O)/C=C(\O)C(=O)NS(C)(=O)=O [Example 28, 3-Hydroxy-4-methanesulfonylamino-4-oxo-but-2-enoic acid (2-chloro-4-fluoro-benzyl)-methoxy-amide]	144 °C (dec.)
